These results are taken from ChEMBL document CHEMBL1125810, “Acyclic analogues of 2-(4-phenylpiperidino)cyclohexanol (vesamicol): conformationally mobile inhibitors of vesicular acetylcholine transport” (J Med Chem, 1991).

Structures are written as SMILES.

A word on the IC50: it is the concentration at which inhibition is half-maximal. A high value points to weaker potency in that assay.

In this assay the target is T1, Vesicular acetylcholine transporter (Torpedo californica, UniProt P81721).
T1 sequence (P81721 whole entry): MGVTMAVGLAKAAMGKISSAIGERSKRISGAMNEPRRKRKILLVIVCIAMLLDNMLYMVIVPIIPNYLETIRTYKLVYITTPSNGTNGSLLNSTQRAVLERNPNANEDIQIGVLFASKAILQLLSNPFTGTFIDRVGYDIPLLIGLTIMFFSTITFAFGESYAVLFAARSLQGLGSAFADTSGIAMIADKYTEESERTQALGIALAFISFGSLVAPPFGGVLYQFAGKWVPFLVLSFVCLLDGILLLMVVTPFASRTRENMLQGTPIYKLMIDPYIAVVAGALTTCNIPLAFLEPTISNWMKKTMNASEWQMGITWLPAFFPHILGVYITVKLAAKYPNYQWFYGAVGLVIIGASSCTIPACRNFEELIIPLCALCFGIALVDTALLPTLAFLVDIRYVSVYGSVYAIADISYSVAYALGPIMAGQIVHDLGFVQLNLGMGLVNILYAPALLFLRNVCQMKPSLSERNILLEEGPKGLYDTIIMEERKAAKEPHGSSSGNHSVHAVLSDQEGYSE
Nature of the assay: Displacement of [3H]vesamicol from Vesamicol receptor of Torpedo californica. Also noted: species or system Tetronarce californica. In general terms: Displacement assays read how much labelled ligand stays bound in the presence of the test substance.
For `OC(Cc1cccc(I)c1)CN1CCC(c2ccccc2)CC1` (centres undefined), the IC50 is 73 nM.

For the compound `OC(Cc1cccc2ccccc12)CN1CCC(c2ccccc2)CC1` (centres undefined), the IC50 came to 1400 nM.

As for `OC(Cc1cccc(Br)c1)CN1CCC(c2ccccc2)CC1` (centres undefined), the IC50 turned out to be 73 nM.

Regarding `OC(Cc1ccc(Br)cc1)CN1CCN(c2ccccc2)CC1` (centres undefined), the IC50 was determined as 1540 nM. This IC50 lies about 21-fold higher than the previous one.

`Oc1cccc(CC(O)CN2CCC(c3ccccc3)CC2)c1` (centres undefined) yielded an IC50 of 520 nM.

`OC(Cc1ccc2ccccc2c1)CN1CCC(c2ccccc2)CC1` (centres undefined) displayed an IC50 of 145 nM.

For the compound `OC(Cc1cccc(Br)c1)CN1CCN(c2ccccc2)CC1` (centres undefined), the IC50 is 990 nM.

On to `Oc1ccc(CC(O)CN2CCC(c3ccccc3)CC2)cc1` (centres undefined), for which the IC50 was determined as 220 nM.

Consider `COc1cccc(CC(O)CN2CCC(c3ccccc3)CC2)c1` (centres undefined), for which the half-maximal inhibitory concentration (IC50) was 115 nM.
